Experimental data from PMC7288171, “Synergistic Effects of Thiosemicarbazides with Clinical Drugs against S. aureus” (Molecules, 2020).
Converted amounts (≈) assume the structure as drawn. Like-named read-outs stand apart in the source and are kept apart here.

Experiments:
B. cereus ATCC 10876 = experiment: MIC, broth microdilution; assay type: cell-based; conditions: Bacillus cereus, ATCC10876
Procedure: (§1) The antibacterial activity of the thiosemicarbazides 1–9 and antibiotics (amoxicillin, gentamicin, levofloxacin, linezolid, and vancomycin) was tested on the Gram-positive strains (Microbiologics, St. Cloud, MN, USA) (S. aureus ATCC 25923, S. aureus ATCC 6538, S. epidermidis ATCC 12228, B. subtilis ATCC 6633, B. cereus ATCC 10876, M. luteus ATCC 10240), the Gram-negative strains (Microbiologics, St. Cloud, MN, USA) (E. coli ATCC 25922, K. pneumoniae ATCC 13883, P. mirabilis ATCC 12453, P. aeruginosa ATCC 9027), and clinical isolates of S. aureus (Medical University of Lublin, Lublin, Poland) (MSSA-1, MSSA-2, MSSA-3, MSSA-4, MRSA-1).

B. subtilis ATCC 6633 = experiment: MIC, broth microdilution; assay type: cell-based; conditions: Bacillus subtilis, ATCC6633
Procedure: as §1

M. luteus ATCC 10240 = experiment: MIC, broth microdilution; assay type: cell-based; conditions: Micrococcus luteus, ATCC10240
Procedure: as §1

S. aureus ATCC 25923 [1] = experiment: MIC, broth microdilution; assay type: cell-based; conditions: Staphylococcus aureus, ATCC25923
Procedure: as §1

S. aureus ATCC 6538 = experiment: MIC, broth microdilution; assay type: cell-based; conditions: Staphylococcus aureus, ATCC6538
Procedure: as §1

[2] = system: S. epidermidis ATCC 12228; experiment: MIC, broth microdilution; assay type: cell-based; conditions: Staphylococcus epidermidis, ATCC12228
Procedure: as §1

MRSA-1 = experiment: MIC, clinical isolate of S. aureus; assay type: cell-based; conditions: Staphylococcus aureus
Procedure: as §1

MSSA-1 = experiment: MIC, clinical isolate of S. aureus; assay type: cell-based; conditions: Staphylococcus aureus
Procedure: as §1

MSSA-2 = experiment: MIC, clinical isolate of S. aureus; assay type: cell-based; conditions: Staphylococcus aureus
Procedure: as §1

MSSA-3 = experiment: MIC, clinical isolate of S. aureus; assay type: cell-based; conditions: Staphylococcus aureus
Procedure: as §1

MSSA-4 = experiment: MIC, clinical isolate of S. aureus; assay type: cell-based; conditions: Staphylococcus aureus
Procedure: as §1

MTT cytotoxicity assay = assay type: cell-based, human; conditions: human, Hs27 foreskin fibroblast cells (ATCC CRL-1634), 25 µg/mL, 24 h, vehicle control = 100%
Procedure: (§2) A critical factor in research and development of new antibacterial agents is their abilities to selectively target bacterial cells without toxicity to mammalian cells. Thus, in order to test if antibacterial activity of title thiosemicarbazides is not due to their general toxicity, their effect on mammalian cell viability was assessed using human foreskin fibroblast Hs27 cells (CRL-1634) via MTT assay.
(§3) Cytotoxic properties of the compounds were evaluated using human foreskin fibroblast cells Hs27 (ATCC CRL-1634) (ATCC, Manassas, VA, USA) that were cultured in DMEM-high glucose (Sigma Aldrich, St. Louis, MO, USA). Medium was supplemented with 10% fetal bovine serum (FBS, Sigma Aldrich), 100 U/mL of penicillin, and […] of streptomycin (PenStrep, Sigma Aldrich, St. Louis, MO, USA). Cells were incubated at 37 °C in a humidified atmosphere of 5% CO2. Stock solutions of the tested compounds were prepared dissolving in a sterile dimethyl sulfoxide (DMSO) to the concentration of 50 mg/mL. The cells were seeded into 96-well sterile plates (Nunc) at a cell density of 1 × 10^5 cells/mL. After 24 h of incubation, the medium was removed from each well, and then cells were incubated for the next 24 h with tested compounds (in a fixed dose of 25 µg/mL) in DMEM-high glucose containing 2% FBS. Control cells were cultured only with medium containing 2% addition of FBS. Cytotoxicity of the compounds was evaluated using MTT assay, which is based on the conversion of 3-(4,5-dimethylthiazol-2-yl)-2,5- diphenyltetrazolium bromide (MTT) into dark-blue formazan crystals. Briefly, after 24-h incubation of cells with varying concentrations of the tested compounds, culture medium was removed from the plates. Cells were washed with PBS, and then 100 µL of medium containing 10% MTT solution (5 mg/mL) was added to each well. Cells were incubated for the next 3 h at 37 °C in an atmosphere of 5% CO2. Next, 100 µL (per well) of 10% sodium dodecyl sulfate (SDS) buffer solution was added to dissolve formazan crystals and after an overnight incubation the absorbance was measured at 570 nm using a microplate reader (Epoch, BioTek Instruments, Inc., Winooski, VT, USA).

[3] = system: human foreskin fibroblast Hs27 cells (CRL-1634); experiment: MTT cytotoxicity assay; assay type: cell-based; conditions: Homo sapiens, 24 h of treatment
Procedure: as §2, §3

S. aureus DNA gyrase = molecular target: T1, S. aureus DNA gyrase (Staphylococcus aureus, UniProt P0A0K8+P20831); experiment: Gyrase supercoiling assay; assay type: biochemical
T1 construct: purchased Inspiralis, Norwich, UK
T1 sequence (P20831 whole entry): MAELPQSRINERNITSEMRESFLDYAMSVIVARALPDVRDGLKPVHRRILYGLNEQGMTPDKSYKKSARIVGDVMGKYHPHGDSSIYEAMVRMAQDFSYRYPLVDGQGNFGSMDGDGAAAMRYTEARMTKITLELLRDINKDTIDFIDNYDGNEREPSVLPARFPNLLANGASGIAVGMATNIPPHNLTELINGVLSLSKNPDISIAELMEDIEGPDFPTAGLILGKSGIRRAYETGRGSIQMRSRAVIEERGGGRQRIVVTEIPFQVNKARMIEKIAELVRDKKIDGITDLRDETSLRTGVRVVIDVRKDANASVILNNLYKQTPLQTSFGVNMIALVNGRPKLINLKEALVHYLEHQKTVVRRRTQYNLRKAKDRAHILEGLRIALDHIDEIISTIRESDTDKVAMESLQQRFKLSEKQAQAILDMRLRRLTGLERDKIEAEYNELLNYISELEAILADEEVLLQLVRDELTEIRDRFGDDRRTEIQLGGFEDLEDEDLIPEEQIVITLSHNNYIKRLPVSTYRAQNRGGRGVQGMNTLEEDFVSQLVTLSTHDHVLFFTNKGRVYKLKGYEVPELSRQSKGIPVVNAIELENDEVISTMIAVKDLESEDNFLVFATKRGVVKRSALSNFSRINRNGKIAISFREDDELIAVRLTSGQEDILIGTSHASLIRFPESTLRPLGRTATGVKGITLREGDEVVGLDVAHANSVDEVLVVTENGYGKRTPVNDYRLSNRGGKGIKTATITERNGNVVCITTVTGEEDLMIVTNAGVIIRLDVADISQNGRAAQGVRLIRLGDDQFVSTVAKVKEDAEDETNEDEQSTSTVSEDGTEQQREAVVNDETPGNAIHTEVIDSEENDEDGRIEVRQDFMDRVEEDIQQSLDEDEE
T1 sequence (P0A0K8 whole entry): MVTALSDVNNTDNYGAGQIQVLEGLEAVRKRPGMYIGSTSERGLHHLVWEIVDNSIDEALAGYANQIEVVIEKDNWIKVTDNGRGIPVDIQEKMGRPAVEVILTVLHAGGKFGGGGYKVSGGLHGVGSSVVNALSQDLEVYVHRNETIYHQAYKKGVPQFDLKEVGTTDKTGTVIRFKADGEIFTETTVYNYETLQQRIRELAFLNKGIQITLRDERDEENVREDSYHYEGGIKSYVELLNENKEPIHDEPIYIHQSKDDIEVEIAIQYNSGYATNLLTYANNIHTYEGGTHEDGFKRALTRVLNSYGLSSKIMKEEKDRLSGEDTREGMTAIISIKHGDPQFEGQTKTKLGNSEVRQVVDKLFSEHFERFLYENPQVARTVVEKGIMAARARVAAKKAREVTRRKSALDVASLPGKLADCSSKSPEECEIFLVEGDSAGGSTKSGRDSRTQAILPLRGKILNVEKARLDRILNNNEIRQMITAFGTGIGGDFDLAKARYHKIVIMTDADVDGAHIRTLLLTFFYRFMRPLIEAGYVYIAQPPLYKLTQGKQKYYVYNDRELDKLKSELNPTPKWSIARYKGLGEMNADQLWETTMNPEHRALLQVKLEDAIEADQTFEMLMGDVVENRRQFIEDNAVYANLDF
Procedure: Supercoiling assay: The assays were performed using S. aureus Gyrase Supercoiling Assay Kits (Inspiralis, Norwich, UK). Briefly, […] pBR322 plasmid DNA (0.5 µg) was incubated with 1 unit of gyrase, in the dedicated supercoiling assay buffer supplied by the manufacturer, in the presence of varying concentrations of the test compounds. Reactions were carried out at 37 °C for 1 h and then terminated by the addition of equal volume of 2 × STOP Buffer (40% sucrose, 100 mM Tris-Cl pH 7.5, 1 mM EDTA, and 0.5 mg/mL bromophenol blue) and chloroform/iso-amyl alcohol. Samples were vortexed, centrifuged, and run through a 15 cm 1% agarose gel in TAE buffer (40 mM Tris-acetate, 2 mM EDTA) for 3 h at 50 V. Gels were stained with ethidium bromide and visualized under UV light.

S. aureus ATCC 25923 [4] = experiment: Checkerboard broth dilution synergy assay; assay type: cell-based
Procedure: The microdilution checkerboard method was used to evaluate the synergistic effects between the thiosemicarbazides 1–9 and antibiotics, which were determined as the fractional inhibitory concentration indices (FICIs). For these experiments, amoxicillin, gentamicin, levofloxacin, linezolid, and vancomycin were selected to represent the five antimicrobial classes most commonly used in clinical practice. In this way, a total of 45 combinations of thiosemicarbazide-amoxicillin, thiosemicarbazide-gentamicin, thiosemicarbazide-levofloxacin, thiosemicarbazide-linezolid, and thiosemicarbazide-vancomycin against S. aureus ATCC 25923 were tested to identify in vitro synergy effects.
Interaction of the thiosemicarbazides 1–9 in combination with amoxicillin, gentamicin, levofloxacin, linezolid or vancomycin against S. aureus ATCC 25923 were analyzed using the checkerboard broth dilution method to determine the fractional inhibitory concentration indices (FICIs), calculated as: FIC = MIC of drug A in combination/MIC of drug A alone + MIC of drug B in combination/MIC of drug B alone. The calculated FICIs were interpreted as synergistic (FIC ≤ 0.5), additive (0.5 < FIC < 1), indifferent (1 ≤ FIC < 4.0), or antagonistic (FIC ≥ 4.0). The checkerboard assay included ciprofloxacin-carvedilol combination as positive control, whereas cefuroxime in combination with 4-(4-bromophenyl)-1-(3-fluorobezoyl)thiosemicarbazide served as negative control. The Z-factor value for the bioassay was 0.683.

[5] = B. c. ATCC 10876, compounds 6–9 and antibiotics, read-out: MIC
[6] = B. s. ATCC 6633, compounds 6–9 and antibiotics, read-out: MIC
[7] = M. l. ATCC 10240, compounds 6–9 and antibiotics, read-out: MIC
[8] = S. a. ATCC 25923, compounds 6–9 and antibiotics, read-out: MIC
[9] = S. a. ATCC 6538, compounds 6–9 and antibiotics, read-out: MIC
[10] = S. e. ATCC 12228, compounds 6–9 and antibiotics, read-out: MIC
[11] = clinical isolate MRSA-1, read-out: MIC
[12] = clinical isolate MSSA-1, read-out: MIC
[13] = clinical isolate MSSA-2, read-out: MIC
[14] = clinical isolate MSSA-3, read-out: MIC
[15] = clinical isolate MSSA-4, read-out: MIC

Row | SMILES | MIC (B. cereus ATCC 10876; [5]) | MIC (B. subtilis ATCC 6633; [6]) | MIC (M. luteus ATCC 10240; [7]) | MIC (S. aureus ATCC 25923 [1]; [8]) | MIC (S. aureus ATCC 6538; [9]) | MIC [2, 10] | MIC (MRSA-1; [11]) | MIC (MSSA-1; [12]) | MIC (MSSA-2; [13]) | MIC (MSSA-3; [14]) | MIC (MSSA-4; [15]) | viability at 24 h, 25 µg/mL (MTT cytotoxicity assay) | IC50 [3] | other results
1 | CC1(C)S[C@@H]2[C@H](NC(=O)[C@H](N)c3ccc(O)cc3)C(=O)N2[C@H]1C(=O)O [AMX, amoxicillin, reference compound] | > 250 µg/mL | 0.12 µg/mL (≈ 0.328 µM) | 0.24 µg/mL (≈ 0.657 µM) | 0.12 µg/mL (≈ 0.328 µM) | 0.12 µg/mL (≈ 0.328 µM) | 7.81 µg/mL (≈ 21.4 µM) | 31.2 µg/mL (≈ 85.5 µM) | 1.95 µg/mL (≈ 5.34 µM) | 0.12 µg/mL (≈ 0.328 µM) | 0.98 µg/mL (≈ 2.68 µM) | 31.2 µg/mL (≈ 85.5 µM) |  |  | 
2 | CNC(C)C1CCC(N)C(OC2C(N)CC(N)C(OC3OCC(C)(O)C(NC)C3O)C2O)O1 (stereo not shown) [GN, gentamicin, reference compound] | 15.6 µg/mL (≈ 32.7 µM) | 0.24 µg/mL (≈ 0.503 µM) | 0.98 µg/mL (≈ 2.05 µM) | 1.95 µg/mL (≈ 4.08 µM) | 0.98 µg/mL (≈ 2.05 µM) | 0.12 µg/mL (≈ 0.251 µM) | 0.98 µg/mL (≈ 2.05 µM) | 0.98 µg/mL (≈ 2.05 µM) | 0.49 µg/mL (≈ 1.03 µM) | 7.81 µg/mL (≈ 16.4 µM) | 1.95 µg/mL (≈ 4.08 µM) |  |  | 
3 | C[C@H]1COc2c(N3CCN(C)CC3)c(F)cc3c(=O)c(C(=O)O)cn1c23 [LEV, levofloxacin, reference compound] | 0.12 µg/mL (≈ 0.332 µM) | 0.12 µg/mL (≈ 0.332 µM) | 0.98 µg/mL (≈ 2.71 µM) | 0.24 µg/mL (≈ 0.664 µM) | 0.24 µg/mL (≈ 0.664 µM) | 0.12 µg/mL (≈ 0.332 µM) | 31.2 µg/mL (≈ 86.5 µM) | 0.12 µg/mL (≈ 0.332 µM) | 0.24 µg/mL (≈ 0.664 µM) | 0.12 µg/mL (≈ 0.332 µM) | 0.12 µg/mL (≈ 0.332 µM) | 101% | > 25 µg/mL | inhibition at 100 µM (S. aureus DNA gyrase; 100 µM, read-out: S. aureus Gyrase DNA Inhibition (%) ± SD): 92.4 ± 3.74%
4 | CC(=O)NC[C@H]1CN(c2ccc(N3CCOCC3)c(F)c2)C(=O)O1 [LZD, linezolid, reference compound] | 0.98 µg/mL (≈ 2.9 µM) | 0.98 µg/mL (≈ 2.9 µM) | 0.98 µg/mL (≈ 2.9 µM) | 1.95 µg/mL (≈ 5.78 µM) | 0.98 µg/mL (≈ 2.9 µM) | 0.49 µg/mL (≈ 1.45 µM) | 1.95 µg/mL (≈ 5.78 µM) | 1.95 µg/mL (≈ 5.78 µM) | 1.95 µg/mL (≈ 5.78 µM) | 0.98 µg/mL (≈ 2.9 µM) | 1.95 µg/mL (≈ 5.78 µM) |  |  | 
5 | CN[C@H](CC(C)C)C(=O)N[C@H]1C(=O)N[C@@H](CC(N)=O)C(=O)N[C@H]2C(=O)N[C@H]3C(=O)N[C@H](C(=O)N[C@H](C(=O)O)c4cc(O)cc(O)c4-c4cc3ccc4O)[C@H](O)c3ccc(c(Cl)c3)Oc3cc2cc(c3O[C@@H]2O[C@H](CO)[C@@H](O)[C@H](O)[C@H]2O[C@H]2C[C@](C)(N)[C@H](O)[C@H](C)O2)Oc2ccc(cc2Cl)[C@H]1O [VA, vancomycin, reference compound] |  |  |  |  |  |  |  |  |  |  |  |  |  | MIC (B. cereus ATCC 10876): 0.98 µg/mL (≈ 0.676 µM); MIC (B. subtilis ATCC 6633): 0.24 µg/mL (≈ 0.166 µM); MIC (M. luteus ATCC 10240): 0.24 µg/mL (≈ 0.166 µM); MIC (S. aureus ATCC 25923 [1]): 0.98 µg/mL (≈ 0.676 µM); MIC (S. aureus ATCC 6538): 0.49 µg/mL (≈ 0.338 µM); MIC [2]: 0.98 µg/mL (≈ 0.676 µM); MIC (MRSA-1; MRSA): 0.98 µg/mL (≈ 0.676 µM); MIC (MSSA-1; MSSA): 0.49 µg/mL (≈ 0.338 µM); MIC (MSSA-2; MSSA): 0.49 µg/mL (≈ 0.338 µM); MIC (MSSA-3; MSSA): 0.49 µg/mL (≈ 0.338 µM); MIC (MSSA-4; MSSA): 0.49 µg/mL (≈ 0.338 µM)
6 | O=C(NNC(=S)Nc1ccc(Cl)cc1)c1ccccc1F [compound 6, 4-(4-chlorophenyl)-1-(2-fluorobenzoyl)thiosemicarbazide] | 31.2 µg/mL (≈ 96.5 µM) | 500 µg/mL (≈ 1540 µM) | 7.82 µg/mL (≈ 24.2 µM) | 500 µg/mL (≈ 1540 µM) | 250 µg/mL (≈ 772 µM) | 250 µg/mL (≈ 772 µM) | 500 µg/mL (≈ 1540 µM) | 250 µg/mL (≈ 772 µM) | > 500 µg/mL | 250 µg/mL (≈ 772 µM) | 125 µg/mL (≈ 386 µM) | 96.8% | > 25 µg/mL | interaction in combination (S. aureus ATCC 25923 [4]; combination with amoxicillin): additive; interaction in combination (S. aureus ATCC 25923 [4]; combination with gentamicin): synergistic; interaction in combination (S. aureus ATCC 25923 [4]; combination with levofloxacin): additive; interaction in combination (S. aureus ATCC 25923 [4]; combination with linezolid): synergistic; interaction in combination (S. aureus ATCC 25923 [4]; combination with vancomycin): additive; inhibition at 50 µM (S. aureus DNA gyrase; 50 µM, read-out: S. aureus Gyrase DNA Inhibition (%) ± SD): 30.8 ± 3.19%; S. aureus Gyrase DNA Inhibition (%) ± SD (S. aureus DNA gyrase; 100 µM): 49.22 ± 3.18%; inhibition at 100 µM (S. aureus DNA gyrase; read-out: S. aureus Gyrase DNA Inhibition (%) ± SD, 100 µM): ~50%
